Common to all, as to format: biochemical
Test [1] has as its target T1, NDH-2 (type II NADH:quinone oxidoreductase) (Caldalkalibacillus thermarum, UniProt F5L3B8).
T1 construct: gene CathTA2_0279
The experiment in a line: NADH:menadione oxidoreduction turnover of purified enzyme ([…] s^−[…] at […] MD).

For test [2], the target named is T2, NDH-2 (type II NADH:quinone oxidoreductase) (Caldalkalibacillus thermarum, UniProt F5L3B8, I379E).
T2 construct: gene CathTA2_0279
The experiment in a line: NADH:menadione oxidoreduction assay, […] menadione, […] NADH.

Test [3] deals with T1, NDH-2 (type II NADH:quinone oxidoreductase). The test is described as follows: co-crystal structure at […] Å; IC50 in NADH:menadione oxidoreduction assay ([…] menadione) with purified enzyme.

Structures are written as SMILES.

T1 sequence (F5L3B8 entry or part of it): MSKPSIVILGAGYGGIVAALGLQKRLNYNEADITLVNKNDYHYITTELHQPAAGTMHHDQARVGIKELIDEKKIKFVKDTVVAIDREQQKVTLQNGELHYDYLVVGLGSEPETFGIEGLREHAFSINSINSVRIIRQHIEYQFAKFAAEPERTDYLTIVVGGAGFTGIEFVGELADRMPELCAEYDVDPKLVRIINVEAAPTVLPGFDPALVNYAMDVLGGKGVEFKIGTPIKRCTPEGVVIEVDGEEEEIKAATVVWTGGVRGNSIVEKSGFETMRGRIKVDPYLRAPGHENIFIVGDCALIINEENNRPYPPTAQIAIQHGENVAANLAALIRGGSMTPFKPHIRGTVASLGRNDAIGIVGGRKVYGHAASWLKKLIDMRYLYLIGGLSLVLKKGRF
T2 sequence (F5L3B8 entry or part of it I379E): as the sequence (F5L3B8 entry or part of it) above

With `CC1=CC(=O)c2ccccc2C1=O` [menadione], the “NADH:menadione oxidoreduction turnover of purified enzyme (959.3 s^-1 at 400 μM)” value in test [1] came to 959.3 s⁻¹.
As for `CCCCCCCc1cc(O)c2ccccc2[n+]1[O-]` [compound 1, 2-heptyl-4-hydroxyquinoline-N-oxide], the IC50 in test [2] amounted to 54.3 ± 1.2 µM; in test [3] it was 7.3 ± 1.2 µM.

(Values after publication PMC6167311, “Structure of the NDH-2 – HQNO inhibited complex provides molecular insight into quinone-binding site inhibitors” (Biochimica et Biophysica Acta, 2018).)
